pIC50, pKi: −log10 of the molar value. A value given as a limit tells only on which side of the number the result lay.

For data set [1], the target named is T1, human Menin and N-terminal portion of human MLL (amino acids 4-43) (Homo sapiens, UniProt O00255).
T1 construct: H-FL-Menin diluted to 4 nM in assay buffer
T1 sequence (O00255 1-610): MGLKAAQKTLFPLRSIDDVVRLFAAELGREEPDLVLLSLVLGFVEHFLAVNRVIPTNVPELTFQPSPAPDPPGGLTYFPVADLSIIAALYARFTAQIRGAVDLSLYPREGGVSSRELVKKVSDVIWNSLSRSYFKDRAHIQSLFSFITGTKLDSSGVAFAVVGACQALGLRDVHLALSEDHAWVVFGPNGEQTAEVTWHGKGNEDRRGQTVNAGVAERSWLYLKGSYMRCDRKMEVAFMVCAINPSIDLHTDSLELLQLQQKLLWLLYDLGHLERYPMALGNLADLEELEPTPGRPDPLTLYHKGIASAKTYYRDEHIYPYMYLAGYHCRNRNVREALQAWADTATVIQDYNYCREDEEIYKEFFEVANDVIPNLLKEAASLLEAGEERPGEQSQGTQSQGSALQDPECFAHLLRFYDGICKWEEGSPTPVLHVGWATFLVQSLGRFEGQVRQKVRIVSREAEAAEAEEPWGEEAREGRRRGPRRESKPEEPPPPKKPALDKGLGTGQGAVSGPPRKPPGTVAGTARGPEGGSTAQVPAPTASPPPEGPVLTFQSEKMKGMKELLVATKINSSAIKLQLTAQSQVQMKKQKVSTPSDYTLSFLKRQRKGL
In words: Menin-MLL competition assay (HTRF). Format: binding. The settings on record: 1 hr incubation. Put shortly:
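HTRF competition: 1 nM His-tagged full-length Menin with 2 nM Tb-anti-His6 and 1 nM FITC-MLL(4-43), 1 h at room temperature in Tris pH 7.4 buffer with DTT, BSA, Triton X-100; 3.16-fold compound series, 2% DMSO. Ratio 520/485 normalized to DMSO and 1 μM reference-compound controls for IC50.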

For a further data set, the target named is T2, Menin-MLL (Homo sapiens, UniProt O00255).
T2 sequence (O00255 1-610): T1 sequence (O00255 1-610)
In words: Determination of binding constants to Menin-MLL (HTRF, EC50 and Ki). Conditions: 0.25 nM H-FL-Menin, 3.2 nM FITC-MLL-4-43, 24 hr incubation. For orientation: In TR-FRET formats the signal depends on donor and acceptor labels being close together.

In data set [2] the test system is MLLr leukemia cell line MV4-11. In words: Cell proliferation assay MV4;11 (CellTiter-Glo, 72 hours). The data set is classed as cell-based. The settings on record: Homo sapiens; MV4-11 cells, 72 hours, CellTiter-Glo; read-out: MV4; 11 IC50. Put shortly:
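Cells in IMDM/10% FBS, seeded from a 15,000 cells/ml suspension, were exposed for 72 h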

The next data set addresses hERG (Homo sapiens, UniProt Q12809). The experiment in a line: Patch clamp assay (hERG tail currents, whole-cell). In general terms: Patch clamp records ionic current or voltage across a cell membrane.

Sequence of hERG (Q12809 whole entry): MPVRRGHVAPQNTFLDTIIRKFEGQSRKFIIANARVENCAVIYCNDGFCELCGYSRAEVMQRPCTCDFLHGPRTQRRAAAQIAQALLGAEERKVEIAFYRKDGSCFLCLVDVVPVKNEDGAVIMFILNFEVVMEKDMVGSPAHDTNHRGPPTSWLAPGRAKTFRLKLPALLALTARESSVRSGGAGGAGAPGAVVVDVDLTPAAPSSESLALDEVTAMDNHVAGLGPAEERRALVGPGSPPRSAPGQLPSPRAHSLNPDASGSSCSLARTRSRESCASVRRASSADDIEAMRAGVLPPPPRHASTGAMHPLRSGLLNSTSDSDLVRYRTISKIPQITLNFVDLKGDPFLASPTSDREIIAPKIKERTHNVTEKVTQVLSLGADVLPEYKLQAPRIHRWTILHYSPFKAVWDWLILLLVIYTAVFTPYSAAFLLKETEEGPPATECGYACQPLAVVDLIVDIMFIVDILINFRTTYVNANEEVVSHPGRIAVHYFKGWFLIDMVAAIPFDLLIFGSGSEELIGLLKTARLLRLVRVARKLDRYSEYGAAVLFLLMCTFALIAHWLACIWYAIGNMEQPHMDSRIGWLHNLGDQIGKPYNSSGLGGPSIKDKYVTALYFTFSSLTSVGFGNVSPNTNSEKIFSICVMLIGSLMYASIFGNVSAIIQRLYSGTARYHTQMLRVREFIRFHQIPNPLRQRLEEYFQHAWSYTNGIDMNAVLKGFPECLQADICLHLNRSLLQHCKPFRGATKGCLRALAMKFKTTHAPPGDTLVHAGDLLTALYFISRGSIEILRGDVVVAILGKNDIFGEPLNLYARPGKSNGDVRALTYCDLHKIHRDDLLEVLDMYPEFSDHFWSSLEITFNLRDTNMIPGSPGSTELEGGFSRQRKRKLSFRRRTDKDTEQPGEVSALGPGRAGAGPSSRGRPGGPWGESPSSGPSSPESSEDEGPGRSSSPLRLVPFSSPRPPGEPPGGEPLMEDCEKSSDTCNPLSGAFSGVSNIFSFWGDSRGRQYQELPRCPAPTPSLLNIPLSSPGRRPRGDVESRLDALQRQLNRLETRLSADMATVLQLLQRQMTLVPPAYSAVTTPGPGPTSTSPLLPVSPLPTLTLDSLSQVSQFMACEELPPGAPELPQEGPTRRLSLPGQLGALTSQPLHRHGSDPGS

Take `CCCNC(=O)N[C@@H]1CC[C@@H](CN2CCC3(CC2)CN(c2ncncc2Oc2ccc(F)cc2C(=O)N(CC)C(C)C)C3)OC1` [Example 38, N-Ethyl-5-fluoro-N-isopropyl-2-((4-(7-(((2S,5R)-5-(3-propylureido)tetrahydro-2H-pyran-2-yl)methyl)-2,7-diazaspiro[3.5]nonan-2-yl)pyrimidin-5-yl)oxy)benzamide]: in data set [1], the pIC50 was > 7.00. Besides, the “Menin-MLL Ki HTRF Assay: EC50 (nM)” value on Menin-MLL was “++ (250 nM and <100 nM)”.

Take `CCN(C(=O)c1cc(F)ccc1Oc1cncnc1N1CC2(CCN(C[C@@H]3CC[C@@H](NC(=O)NCC(F)F)CO3)CC2)C1)C(C)C` [Example 41, 2-((4-(7-(((2S,5R)-5-(3-(2,2-Difluoroethyl)ureido)tetrahydro-2H-pyran-2-yl)methyl)-2,7-diazaspiro[3.5]nonan-2-yl)pyrimidin-5-yl)oxy)-N-ethyl-5-fluoro-N-isopropylbenzamide]: in data set [1], the pIC50 is > 7.00. Besides, the “Menin-MLL Ki HTRF Assay: EC50 (nM)” value on Menin-MLL is “++ (250 nM and <100 nM)”.

One may read the pKi as −log10 of the Ki, conventionally taken in molar units. Take `CC(C)N(C(=O)c1cc(F)ccc1Oc1cncnc1N1CC2(CCN(C[C@@H]3CC[C@@H](NS(=O)(=O)N(C)C)CO3)CC2)C1)[C@H]1CCOC1` [Example 177, 2-((4-(7-(((2S,5R)-5-((N,N-Dimethylsulfamoyl)amino)tetrahydro-2H-pyran-2-yl)methyl)-2,7-diazaspiro[3.5]nonan-2-yl)pyrimidin-5-yl)oxy)-5-fluoro-N-isopropyl-N-((S)-tetrahydrofuran-3-yl)benzamide]: the pIC50 in data set [2] was > 7.00. For the same molecule, the “hERG % Remaining” value on hERG (10 μM compound) and on hERG (30 μM compound) was “+++ (≥66%)” in each case. Moreover, at Menin-MLL, the pKi is > 9.00.

For the molecule `CCS(=O)(=O)N[C@@H]1CC[C@@H](CN2CCC3(CC2)CN(c2ncncc2Oc2ccc(F)cc2C(=O)N(C(C)C)[C@H]2C[C@@H](F)C2)C3)OC1` [Example 244, 2-((4-(7-(((2S,5R)-5-(ethylsulfonamido)tetrahydro-2H-pyran-2-yl)methyl)-2,7-diazaspiro[3.5]nonan-2-yl)pyrimidin-5-yl)oxy)-5-fluoro-N-((1s,3s)-3-fluorocyclobutyl)-N-isopropylbenzamide], in data set [2], the pIC50 was > 7.00. Further, the “hERG % Remaining” value at hERG (10 μM compound) is “+++ (≥66%)”; at hERG (30 μM compound) it was “++ (233% and ≤66%)”. The negative logarithm of the Ki (pKi) at Menin-MLL was > 9.00.

These data come from patent publication US20240400564A1 (Syndax Pharmaceuticals, Inc, priority 2021, published 2024).
